Source: the NIST ThermoML archive (doi:10.1016/j.fluid.2019.06.022)
Several values for one entry are separate records, joined by “and”; a condition that tells them apart may be missing. Equal values may be shown once.

Assay: xn = mol fraction of the nth substance listed
Conditions: Liquid; for mass density: Bellows volumetry; for viscosity: Falling or rolling sphere viscometry

C=CC [propene] + Cc1ccccc1
Conditions	mass density, x1 = 0.0787	mass density, x1 = 0.3073	viscosity, x1 = 0.0787	viscosity, x1 = 0.3073
294.8 K, 16200 kPa	839.2 kg/m3	–	0.656 mPa·s and 0.638 mPa·s	–
294.8 K, 27900 kPa	847.6 kg/m3	–	0.7 mPa·s and 0.696 mPa·s	–
294.8 K, 28000 kPa	847.6 kg/m3	–	0.689 mPa·s	–
294.8 K, 28100 kPa	847.6 kg/m3	–	0.696 mPa·s	–
294.8 K, 28200 kPa	849.8 kg/m3	–	0.694 mPa·s and 0.693 mPa·s	–
294.8 K, 40900 kPa	855.9 kg/m3	–	0.77 mPa·s and 0.772 mPa·s	–
294.8 K, 56200 kPa	864.7 kg/m3	–	0.856 mPa·s	–
294.8 K, 56300 kPa	864.7 kg/m3	–	0.854 mPa·s	–
297.5 K, 3700 kPa	–	753 kg/m3	–	0.356 mPa·s and 0.355 mPa·s
297.5 K, 10800 kPa	–	759 kg/m3	–	0.371 mPa·s
297.5 K, 10900 kPa	–	759 kg/m3	–	0.363 mPa·s
297.5 K, 20700 kPa	–	766.9 kg/m3	–	0.399 mPa·s and 0.4 mPa·s
297.5 K, 21200 kPa	–	767.5 kg/m3	–	0.408 mPa·s and 0.412 mPa·s
297.5 K, 30500 kPa	–	774.9 kg/m3	–	0.439 mPa·s
297.5 K, 30600 kPa	–	774.9 kg/m3	–	0.44 mPa·s
297.5 K, 30700 kPa	–	774.9 kg/m3	–	0.431 mPa·s and 0.433 mPa·s
297.5 K, 48400 kPa	–	787.8 kg/m3	–	0.491 mPa·s
297.5 K, 48500 kPa	–	787.8 kg/m3	–	0.49 mPa·s
297.5 K, 69000 kPa	–	800.9 kg/m3	–	0.555 mPa·s
297.5 K, 69100 kPa	–	800.9 kg/m3	–	0.552 mPa·s
323.1 K, 3300 kPa	–	728.4 kg/m3	–	0.276 mPa·s
323.1 K, 3700 kPa	–	728.4 kg/m3	–	0.277 mPa·s
323.1 K, 10200 kPa	–	736.3 kg/m3	–	0.294 mPa·s
323.1 K, 11000 kPa	–	736.3 kg/m3	–	0.295 mPa·s
323.1 K, 21100 kPa	–	747.5 kg/m3	–	0.319 mPa·s
323.1 K, 21200 kPa	–	747.5 kg/m3	–	0.316 mPa·s
323.1 K, 35000 kPa	–	758.2 kg/m3	–	0.363 mPa·s
323.1 K, 35100 kPa	–	758.2 kg/m3	–	0.36 mPa·s and 0.352 mPa·s
323.1 K, 35200 kPa	–	758.2 kg/m3	–	0.35 mPa·s
323.1 K, 48500 kPa	–	768.2 kg/m3	–	0.389 mPa·s and 0.385 mPa·s
323.1 K, 68900 kPa	–	782.5 kg/m3	–	0.441 mPa·s and 0.442 mPa·s
325.2 K, 7100 kPa	808.6 kg/m3	–	0.423 mPa·s	–
325.2 K, 7400 kPa	808.6 kg/m3	–	0.421 mPa·s	–
325.2 K, 13900 kPa	814.5 kg/m3	–	0.435 mPa·s	–
325.2 K, 14200 kPa	814.2 kg/m3	–	0.44 mPa·s	–
325.2 K, 20600 kPa	819.6 kg/m3	–	0.468 mPa·s and 0.467 mPa·s	–
325.2 K, 26900 kPa	824.5 kg/m3	–	0.493 mPa·s	–
325.2 K, 27100 kPa	824.5 kg/m3	–	0.495 mPa·s	–
325.2 K, 40500 kPa	833.6 kg/m3	–	0.543 mPa·s and 0.534 mPa·s	–
325.2 K, 40700 kPa	833.6 kg/m3	–	0.542 mPa·s and 0.533 mPa·s	–
325.2 K, 51500 kPa	840.7 kg/m3	–	0.58 mPa·s	–
325.2 K, 51600 kPa	840.7 kg/m3	–	0.584 mPa·s and 0.589 mPa·s	–
325.2 K, 51900 kPa	840.7 kg/m3	–	0.583 mPa·s	–
325.2 K, 67700 kPa	850.9 kg/m3	–	0.644 mPa·s	–
325.2 K, 67900 kPa	850.9 kg/m3	–	0.645 mPa·s	–
325.2 K, 68000 kPa	850.9 kg/m3	–	0.645 mPa·s and 0.661 mPa·s	–
373.4 K, 3400 kPa	–	677.6 kg/m3	–	0.179 mPa·s
373.4 K, 3500 kPa	–	677.6 kg/m3	–	0.177 mPa·s
373.4 K, 6700 kPa	–	682.7 kg/m3	–	0.185 mPa·s
373.4 K, 6800 kPa	–	682.7 kg/m3	–	0.186 mPa·s
373.4 K, 17500 kPa	–	697.6 kg/m3	–	0.206 mPa·s and 0.207 mPa·s
373.4 K, 27500 kPa	–	710.3 kg/m3	–	0.225 mPa·s
373.4 K, 27700 kPa	–	710.2 kg/m3	–	0.224 mPa·s
373.4 K, 39100 kPa	–	722.7 kg/m3	–	0.244 mPa·s
373.4 K, 39200 kPa	–	722.7 kg/m3	–	0.243 mPa·s
373.4 K, 39300 kPa	–	722.7 kg/m3	–	0.246 mPa·s
373.4 K, 39600 kPa	–	722.7 kg/m3	–	0.247 mPa·s
373.4 K, 54700 kPa	–	737.2 kg/m3	–	0.27 mPa·s
373.4 K, 54800 kPa	–	737.2 kg/m3	–	0.271 mPa·s
373.4 K, 69000 kPa	–	748.6 kg/m3	–	0.297 mPa·s
373.4 K, 69100 kPa	–	748.6 kg/m3	–	0.296 mPa·s
376.9 K, 2400 kPa	759.5 kg/m3	–	0.252 mPa·s	–
376.9 K, 3100 kPa	760.8 kg/m3	–	0.253 mPa·s	–
376.9 K, 3200 kPa	760.8 kg/m3	–	0.252 mPa·s	–
376.9 K, 3900 kPa	762.5 kg/m3	–	0.26 mPa·s	–
376.9 K, 8400 kPa	767 kg/m3	–	0.264 mPa·s	–
376.9 K, 8500 kPa	767 kg/m3	–	0.267 mPa·s	–
376.9 K, 8600 kPa	767 kg/m3	–	0.267 mPa·s	–
376.9 K, 8700 kPa	767.3 kg/m3	–	0.269 mPa·s	–
376.9 K, 14300 kPa	774.1 kg/m3	–	0.282 mPa·s	–
376.9 K, 14600 kPa	774.1 kg/m3	–	0.283 mPa·s	–
376.9 K, 26800 kPa	786.3 kg/m3	–	0.314 mPa·s	–
376.9 K, 27000 kPa	786.3 kg/m3	–	0.312 mPa·s	–
376.9 K, 27200 kPa	786.6 kg/m3	–	0.312 mPa·s	–
376.9 K, 27400 kPa	786.6 kg/m3	–	0.317 mPa·s and 0.312 mPa·s	–
376.9 K, 27600 kPa	786.6 kg/m3	–	0.317 mPa·s	–
376.9 K, 41000 kPa	799.3 kg/m3 and 798.4 kg/m3	–	0.352 mPa·s and 0.349 mPa·s	–
376.9 K, 41200 kPa	798.4 kg/m3 and 799.3 kg/m3	–	0.345 mPa·s and 0.353 mPa·s	–
376.9 K, 55500 kPa	810.5 kg/m3	–	0.376 mPa·s	–
376.9 K, 55800 kPa	810.5 kg/m3	–	0.386 mPa·s	–
376.9 K, 68600 kPa	819.9 kg/m3	–	0.419 mPa·s	–
376.9 K, 68900 kPa	819.9 kg/m3	–	0.418 mPa·s	–
440.5 K, 3600 kPa	–	599.7 kg/m3	–	0.12 mPa·s and 0.121 mPa·s
440.5 K, 7500 kPa	–	612.2 kg/m3	–	0.129 mPa·s
440.5 K, 7600 kPa	–	612.2 kg/m3	–	0.129 mPa·s
440.5 K, 20300 kPa	–	642.2 kg/m3	–	0.15 mPa·s
440.5 K, 37200 kPa	–	669.5 kg/m3	–	0.176 mPa·s and 0.177 mPa·s
440.5 K, 37400 kPa	–	669.5 kg/m3	–	0.174 mPa·s
440.5 K, 37500 kPa	–	669.5 kg/m3	–	0.178 mPa·s
440.5 K, 50100 kPa	–	683.9 kg/m3	–	0.195 mPa·s
440.5 K, 50200 kPa	–	683.8 kg/m3	–	0.193 mPa·s
440.5 K, 68600 kPa	–	703.5 kg/m3	–	0.221 mPa·s
440.5 K, 68700 kPa	–	703.5 kg/m3	–	0.222 mPa·s
443 K, 3200 kPa	691.9 kg/m3	–	0.152 mPa·s	–
443 K, 3300 kPa	691.6 kg/m3	–	0.151 mPa·s	–
443 K, 10500 kPa	706.3 kg/m3	–	0.17 mPa·s and 0.166 mPa·s	–
443 K, 15100 kPa	714.5 kg/m3	–	0.178 mPa·s	–
443 K, 15300 kPa	714.5 kg/m3	–	0.178 mPa·s	–
443 K, 27100 kPa	732.1 kg/m3	–	0.201 mPa·s	–
443 K, 27200 kPa	732.1 kg/m3	–	0.2 mPa·s and 0.201 mPa·s	–
443 K, 27300 kPa	731.8 kg/m3	–	0.201 mPa·s	–
443 K, 37600 kPa	745.3 kg/m3	–	0.221 mPa·s	–
443 K, 37800 kPa	745.3 kg/m3	–	0.218 mPa·s	–
443 K, 47900 kPa	756.2 kg/m3	–	0.243 mPa·s and 0.244 mPa·s	–
443 K, 64800 kPa	772.1 kg/m3	–	0.271 mPa·s	–
443 K, 65000 kPa	772.4 kg/m3	–	0.271 mPa·s	–
529.2 K, 35300 kPa	–	593.8 kg/m3	–	0.119 mPa·s and 0.12 mPa·s
529.2 K, 49000 kPa	–	619 kg/m3 and 619.1 kg/m3	–	0.132 mPa·s and 0.135 mPa·s
529.2 K, 68500 kPa	–	647.6 kg/m3	–	0.156 mPa·s
529.2 K, 68600 kPa	–	647.5 kg/m3	–	0.153 mPa·s
531.1 K, 7200 kPa	599.1 kg/m3	–	0.091 mPa·s	–
531.1 K, 19200 kPa	641.3 kg/m3	–	0.114 mPa·s	–
531.1 K, 19400 kPa	641.1 kg/m3	–	0.113 mPa·s	–
531.1 K, 31900 kPa	669.1 kg/m3 and 669.7 kg/m3 and 669.3 kg/m3	–	0.133 mPa·s and 0.134 mPa·s	–
531.1 K, 32000 kPa	670.2 kg/m3	–	0.133 mPa·s	–
531.1 K, 32100 kPa	670 kg/m3	–	0.131 mPa·s	–
531.1 K, 32200 kPa	670.2 kg/m3	–	0.136 mPa·s	–
531.1 K, 41400 kPa	685 kg/m3	–	0.148 mPa·s	–
531.1 K, 41500 kPa	685 kg/m3 and 685.2 kg/m3	–	0.145 mPa·s and 0.148 mPa·s	–
531.1 K, 41600 kPa	685.2 kg/m3	–	0.146 mPa·s	–
531.1 K, 53300 kPa	702.3 kg/m3 and 701.5 kg/m3	–	0.165 mPa·s	–
531.1 K, 53400 kPa	701.7 kg/m3 and 702.5 kg/m3	–	0.164 mPa·s and 0.165 mPa·s	–
531.1 K, 67100 kPa	718.1 kg/m3	–	0.18 mPa·s	–
531.1 K, 67200 kPa	718.6 kg/m3	–	0.179 mPa·s	–
